The text below walks through data of patent US20090176798A1, “New compounds III” (Biovitrum AB, priority 2007, published 2009).

Assay [1] deals with JEG-3 cells. Kind of assay: [3H]-thymidine incorporation in JEG-3 cells (leptin assay in non-recombinant system). The format is cell-based. Particulars: FIG. 5. On the procedure: In JEG-3 cells (choriocarcinoma cell line) leptin is able to stimulate proliferation up to 3 fold (Biol. Reprod. (2007) 76: 203-10). […] The radioactivity incorporated by the cells is an index of their proliferative activity and is measured in counts per minute (CPM) with a liquid scintillation beta counter.
This finding can be applied to test whether a compound is able to either reproduce the effect of leptin on cell proliferation (leptin receptor agonist mimetic) (i.e., a given compound will cause an increase in incorporated [^3H]-Thymidine by the cells) or to inhibit the effect of leptin (antagonistic effect) by preventing the leptin-mediated increase in [^3H]-thymidine incorporation.
This approach has the advantage of using a non-recombinant system and has reasonable reproducibility and robustness.
(Dividing cells build labelled thymidine or BrdU into new DNA.)

For assay [2], the system named is JEG-3 cells. Particulars: Biol. Reprod. (2007) 76: 203-10; cited from earlier work.

As to “leptin: a hormone synthesized in fat cells that is believed to act in the hypothalamus to reduce food intake and body weight”, the EC50 in assay [1] (JEG-3 cells (choriocarcinoma cell line), read-out: EC50, increase in [3H]-thymidine incorporation) stood at 2.1 nM. Besides, the concentration of maximal effect on [3H]-thymidine incorporation in assay [1] (JEG-3 cells) was 100 nM. Further, the stimulation of proliferation result in assay [2] was “up to 3 fold”.
